Results: patent publication US12227488B2, “Small molecule degraders of Helios and methods of use” (DANA-FARBER CANCER INSTITUTE, INC., priority 2018, dated 2025)

Columns and labels:
IKZF2 = test: Cellular degradation assay, eGFP-IKZF2Δ fusion with mCherry reporter in Flp-In 293 cells; type: cell-based; conditions: 5 h incubation, n=1
Procedure: (§1) IKZF1Δ, IKZF2Δ, GSPT1 and SALL4 ZnF1-2 were subcloned into mammalian pcDNA5/FRT Vector (Ampicillin and Hygromycin B resistant) modified to contain MCS-eGFP-P2A-mCherry. […] Following 2-3 passage cycle, FACS (FACSAria™ II, BD) was used to enrich for cells expressing eGFP and mCherry. Cells stably expressing the IKZF1Δ, IKZF2Δ, GSPT1 or SALL4 Znf1-2 GFP fusions with mCherry reporter were seeded at 30-50% confluency in 384-well plates with 50 μL FluoroBrite™ DMEM media (Thermo Fisher Scientific, A18967) containing 10% FBS per well a day before compound treatment. Compound titrations were dispensed using a D300e Digital Dispenser (HP), normalized to 0.5% DMSO, and incubated with cells for 5 hours.
(§2) The resulting images were analyzed using CellProfiler™. A series of image analysis steps (‘image analysis pipeline’) was constructed. First, the red and green channels were aligned and cropped to target the middle of each well (to avoid analysis of heavily clumped cells at the edges), and a background illumination function was calculated for both red and green channels of each well individually and subtracted to correct for illumination variations across the 384-well plate from various sources of error. An additional step was then applied to the green channel to suppress the analysis of large auto fluorescent artifacts and enhance the analysis of cell specific fluorescence by way of selecting for objects under a given size, 30 A.U., and with a given shape, speckles. mCherry-positive cells were then identified in the red channel filtering for objects between 8-60 pixels in diameter and using intensity to distinguish between clumped objects. The green channel was then segmented into GFP positive and negative areas and objects were labeled as GFP positive if at least 40% of it overlapped with a GFP positive area. The fraction of GFP-positive cells/mCherry-positive cells in each well was then calculated, and the green and red images were rescaled for visualization.
(§3) The degradation assay was performed as described above. […] Degradation was measured after 5 h of compound treatment and the concentrations that lead to half degradation at 5 h (DC50,5 h) were calculated using the nonlinear fit variable slope model (GraphPad Software).

IKZF1 = target: T1, IKZF1 (Homo sapiens, UniProt Q13422); test: Cellular degradation assay, eGFP-IKZF1Δ fusion with mCherry reporter in Flp-In 293 cells; type: cell-based; conditions: 5 h incubation, n=1
T1 construct: expressed in transfected cells; host or cells: Flp-In 293
Procedure: as §1, §2, §3

CRBN and Helios (IKZF2) = target: T2, CRBN and Helios (IKZF2) (Homo sapiens, UniProt Q96SW2+Q9UKS7); test: TR-FRET dimerization assay (CRBN-IKZF2 ternary complex formation); type: binding; conditions: n=1
T2 construct: His (N); Strep (N)
Procedure: A focused library of imide analogs was synthesized and assessed for their ability to induce dimerization between CRBN and Helios in a time-resolved fluorescence energy transfer (TR-FRET) assay (FIG. 1A).
Prior to TR-FRET measurements being conducted, the reactions were incubated for 15 min at rt. […] The TR-FRET signal of each data point was extracted by calculating the 520/490 nm ratios. Data from single measurements (n=1), each calculated as an average of at least three technical replicates per well per experiment are presented in Table 1.
BODIPY-labeled CRBN in complex with Damage Specific DNA Binding Protein 1 (DDB1) harboring an internal deletion of the flexible BPB propeller (DDB1AB-CRBN) and in vitro biotinylated IKZF2 were treated with increasing concentrations of the indicated compounds in the presence of tracer amounts of Terbium-Streptavidin (Tb-SA). Compound-induced recruitment of IKZF2 to CRBN was quantified following the 520/490 TR-FRET ratio using a PHERAstar® plate reader (BMG) utilizing two synchronized PMTs to reduce background.

[1] = compound concentration 2.00E−05
[2] = compound concentration 2.00E−06
[3] = compound concentration 2.00E−07
[4] = compound concentration 6.6667E−05
[5] = compound concentration 6.6667E−06
[6] = compound concentration 6.6667E−07 (667 nM)

T1 sequence (Q13422 83-213 isoform Q13422-7 limits assumed): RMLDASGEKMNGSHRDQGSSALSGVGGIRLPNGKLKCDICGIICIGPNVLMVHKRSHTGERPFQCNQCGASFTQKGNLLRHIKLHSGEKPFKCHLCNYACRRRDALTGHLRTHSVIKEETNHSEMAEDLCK
T1 sequence (Q96SW2 whole entry partner, the tested form may be a part): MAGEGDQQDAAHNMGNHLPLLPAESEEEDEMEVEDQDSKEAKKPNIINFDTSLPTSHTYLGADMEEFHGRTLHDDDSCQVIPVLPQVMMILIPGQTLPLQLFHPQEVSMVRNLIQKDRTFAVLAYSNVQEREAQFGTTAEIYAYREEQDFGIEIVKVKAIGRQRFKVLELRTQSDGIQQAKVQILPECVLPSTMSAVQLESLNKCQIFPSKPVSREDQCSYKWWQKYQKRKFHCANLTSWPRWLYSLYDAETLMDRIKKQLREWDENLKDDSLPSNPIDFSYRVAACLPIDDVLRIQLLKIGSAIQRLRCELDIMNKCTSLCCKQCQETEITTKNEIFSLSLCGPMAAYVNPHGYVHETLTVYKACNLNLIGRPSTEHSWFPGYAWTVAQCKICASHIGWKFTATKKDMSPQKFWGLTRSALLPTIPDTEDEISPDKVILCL
T1 sequence (Q16531 2-1140 partner limits assumed): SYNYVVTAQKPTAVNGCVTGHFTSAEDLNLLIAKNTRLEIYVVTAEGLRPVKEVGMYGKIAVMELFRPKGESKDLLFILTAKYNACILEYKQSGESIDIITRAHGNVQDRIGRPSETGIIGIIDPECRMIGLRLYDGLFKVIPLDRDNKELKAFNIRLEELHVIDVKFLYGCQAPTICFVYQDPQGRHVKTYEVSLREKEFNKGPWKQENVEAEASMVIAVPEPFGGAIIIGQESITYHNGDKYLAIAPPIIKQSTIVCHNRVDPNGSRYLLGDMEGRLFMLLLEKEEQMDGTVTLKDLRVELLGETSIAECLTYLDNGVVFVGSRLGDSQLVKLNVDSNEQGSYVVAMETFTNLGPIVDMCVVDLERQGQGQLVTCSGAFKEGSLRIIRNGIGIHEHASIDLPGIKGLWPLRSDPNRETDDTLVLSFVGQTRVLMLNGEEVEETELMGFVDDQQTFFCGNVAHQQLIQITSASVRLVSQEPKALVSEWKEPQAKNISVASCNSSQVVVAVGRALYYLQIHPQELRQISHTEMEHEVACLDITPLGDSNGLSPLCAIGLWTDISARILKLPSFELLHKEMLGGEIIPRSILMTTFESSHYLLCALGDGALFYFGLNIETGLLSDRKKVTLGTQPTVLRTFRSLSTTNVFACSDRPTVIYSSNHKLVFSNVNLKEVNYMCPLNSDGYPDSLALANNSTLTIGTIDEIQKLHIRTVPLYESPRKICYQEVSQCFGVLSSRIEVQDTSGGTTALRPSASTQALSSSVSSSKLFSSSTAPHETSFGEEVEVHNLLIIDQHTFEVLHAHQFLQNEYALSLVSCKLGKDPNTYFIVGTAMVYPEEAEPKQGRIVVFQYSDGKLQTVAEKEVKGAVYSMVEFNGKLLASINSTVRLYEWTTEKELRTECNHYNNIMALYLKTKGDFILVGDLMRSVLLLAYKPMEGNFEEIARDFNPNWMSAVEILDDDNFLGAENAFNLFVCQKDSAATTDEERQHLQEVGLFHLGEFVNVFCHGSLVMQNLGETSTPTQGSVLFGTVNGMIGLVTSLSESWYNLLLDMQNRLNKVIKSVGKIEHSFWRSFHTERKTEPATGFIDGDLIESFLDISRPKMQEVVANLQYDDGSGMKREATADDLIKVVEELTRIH
T2 sequence (Q96SW2 whole entry): as the sequence (Q96SW2 whole entry partner, the tested form may be a part) above
T2 sequence (Q9UKS7 whole entry): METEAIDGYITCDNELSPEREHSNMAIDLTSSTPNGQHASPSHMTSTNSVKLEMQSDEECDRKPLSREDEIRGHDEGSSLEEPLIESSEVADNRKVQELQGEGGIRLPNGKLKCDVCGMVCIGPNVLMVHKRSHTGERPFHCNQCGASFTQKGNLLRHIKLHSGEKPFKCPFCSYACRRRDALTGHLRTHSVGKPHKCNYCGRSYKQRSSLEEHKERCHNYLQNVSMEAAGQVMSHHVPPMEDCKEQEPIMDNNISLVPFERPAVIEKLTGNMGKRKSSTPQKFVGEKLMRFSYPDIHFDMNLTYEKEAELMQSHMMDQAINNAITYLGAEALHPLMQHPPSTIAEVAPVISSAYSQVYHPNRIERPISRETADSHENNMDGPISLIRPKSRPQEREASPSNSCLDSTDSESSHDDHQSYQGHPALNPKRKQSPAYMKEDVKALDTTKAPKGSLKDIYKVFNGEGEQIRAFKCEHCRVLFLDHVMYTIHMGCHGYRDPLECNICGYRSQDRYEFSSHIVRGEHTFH

With Cc1ccc(NC(=O)NCc2cccc(OC3=CC(=O)N(C4CCC(=O)NC4=O)C3=O)c2)cc1Cl (stereo not drawn) [Compound 64, 1-(3-chloro-4-methylphenyl)-3-(3-((1-(2,6-dioxopiperidin-3-yl)-2,5-dioxo-2,5-dihydro-1H-pyrrol-3-yl)oxy)benzyl)urea] the “IKZF2 GFP/RFP Relative Abundance” value (IKZF2; [1]) was 1.087, the “IKZF2 GFP/RFP Relative Abundance” value (IKZF2; [2]) was 1.038 and the “IKZF2 GFP/RFP Relative Abundance” value (IKZF2; [3]) was 1.061. For the same molecule, the “IKZF1 GFP/RFP Relative Abundance” value (IKZF1; [1]) was 1.154, the “IKZF1 GFP/RFP Relative Abundance” value (IKZF1; [2]) was 1.077 and the “IKZF1 GFP/RFP Relative Abundance” value (IKZF1; [3]) was 1.122. For the same molecule, the “TR-FRET-IKZF2 (Normalized to CC-885)” value (CRBN and Helios (IKZF2); [4]) was 0.030, the “TR-FRET-IKZF2 (Normalized to CC-885)” value (CRBN and Helios (IKZF2); [5]) was 0.025 and the “TR-FRET-IKZF2 (Normalized to CC-885)” value (CRBN and Helios (IKZF2); [6]) was 0.021.

In the case of Cc1ccc(N(C)C(=O)CCc2cccc(NC3=CC(=O)N(C4CCC(=O)NC4=O)C3=O)c2)cc1Cl (stereo not drawn) [Compound 127, N-(3-chloro-4-methylphenyl)-3-(3-((1-(2,6-dioxopiperidin-3-yl)-2,5-dioxo-2,5-dihydro-1H-pyrrol-3-yl)amino)phenyl)-N-methylpropanamide], the “IKZF2 GFP/RFP Relative Abundance” value (IKZF2; [1]) is reported as 0.266, the “IKZF2 GFP/RFP Relative Abundance” value (IKZF2; [2]) is reported as 0.047 and the “IKZF2 GFP/RFP Relative Abundance” value (IKZF2; [3]) is reported as 0.060. The “IKZF1 GFP/RFP Relative Abundance” value (IKZF1; [1]) was 0.313, the “IKZF1 GFP/RFP Relative Abundance” value (IKZF1; [2]) was 0.079 and the “IKZF1 GFP/RFP Relative Abundance” value (IKZF1; [3]) was 0.079. The “TR-FRET-IKZF2 (Normalized to CC-885)” value (CRBN and Helios (IKZF2); [4]) was 1.390, the “TR-FRET-IKZF2 (Normalized to CC-885)” value (CRBN and Helios (IKZF2); [5]) was 1.362 and the “TR-FRET-IKZF2 (Normalized to CC-885)” value (CRBN and Helios (IKZF2); [6]) was 1.195.

Cc1ccc(NC(=O)OCCc2cccc(NC3=CC(=O)N(C4CCC(=O)NC4=O)C3=O)c2)cc1Cl (stereo not drawn) [Compound 110, 3-((1-(2,6-dioxopiperidin-3-yl)-2,5-dioxo-2,5-dihydro-1H-pyrrol-3-yl)amino)phenethyl (3-chloro-4-methylphenyl)carbamate] was tested, and the “IKZF2 GFP/RFP Relative Abundance” value (IKZF2; [1]) was 0.048, the “IKZF2 GFP/RFP Relative Abundance” value (IKZF2; [2]) was 0.048 and the “IKZF2 GFP/RFP Relative Abundance” value (IKZF2; [3]) was 0.038. The “IKZF1 GFP/RFP Relative Abundance” value (IKZF1; [1]) was 0.096, the “IKZF1 GFP/RFP Relative Abundance” value (IKZF1; [2]) was 0.066 and the “IKZF1 GFP/RFP Relative Abundance” value (IKZF1; [3]) was 0.086. The “TR-FRET-IKZF2 (Normalized to CC-885)” value (CRBN and Helios (IKZF2); [4]) was 1.017, the “TR-FRET-IKZF2 (Normalized to CC-885)” value (CRBN and Helios (IKZF2); [5]) was 1.086 and the “TR-FRET-IKZF2 (Normalized to CC-885)” value (CRBN and Helios (IKZF2); [6]) was 0.853.

In the case of Cc1ccc(NC(=O)N2Cc3ccc(NC4=CC(=O)N(C5CCC(=O)NC5=O)C4=O)cc3C2)cc1Cl (stereo not drawn) [Compound 107, N-(3-chloro-4-methylphenyl)-5-((1-(2,6-dioxopiperidin-3-yl)-2,5-dioxo-2,5-dihydro-1H-pyrrol-3-yl)amino)isoindoline-2-carboxamide], the “IKZF2 GFP/RFP Relative Abundance” value (IKZF2; [1]) is reported as 0.225, the “IKZF2 GFP/RFP Relative Abundance” value (IKZF2; [2]) is reported as 1.034 and the “IKZF2 GFP/RFP Relative Abundance” value (IKZF2; [3]) is reported as 1.048. For the same molecule, the “IKZF1 GFP/RFP Relative Abundance” value (IKZF1; [1]) was 0.245, the “IKZF1 GFP/RFP Relative Abundance” value (IKZF1; [2]) was 1.043 and the “IKZF1 GFP/RFP Relative Abundance” value (IKZF1; [3]) was 0.997. For the same molecule, the “TR-FRET-IKZF2 (Normalized to CC-885)” value (CRBN and Helios (IKZF2); [4]) was 0.086, the “TR-FRET-IKZF2 (Normalized to CC-885)” value (CRBN and Helios (IKZF2); [5]) was 0.066 and the “TR-FRET-IKZF2 (Normalized to CC-885)” value (CRBN and Helios (IKZF2); [6]) was 0.066.

With Cc1cc(CNC(=O)NC(C)c2cccc(NC3=CC(=O)N(C4CCC(=O)NC4=O)C3=O)c2)ccc1Cl (stereo not drawn) [Compound 120, 1-(4-chloro-3-methylbenzyl)-3-(1-(3-((1-(2,6-dioxopiperidin-3-yl)-2,5-dioxo-2,5-dihydro-1H-pyrrol-3-yl)amino)phenyl)ethyl)urea] the “IKZF2 GFP/RFP Relative Abundance” value (IKZF2; [1]) was 0.077, the “IKZF2 GFP/RFP Relative Abundance” value (IKZF2; [2]) was 0.117 and the “IKZF2 GFP/RFP Relative Abundance” value (IKZF2; [3]) was 0.157. The “IKZF1 GFP/RFP Relative Abundance” value (IKZF1; [1]) was 0.094, the “IKZF1 GFP/RFP Relative Abundance” value (IKZF1; [2]) was 0.110 and the “IKZF1 GFP/RFP Relative Abundance” value (IKZF1; [3]) was 0.092. For the same molecule, the “TR-FRET-IKZF2 (Normalized to CC-885)” value (CRBN and Helios (IKZF2); [4]) was 1.263, the “TR-FRET-IKZF2 (Normalized to CC-885)” value (CRBN and Helios (IKZF2); [5]) was 1.011 and the “TR-FRET-IKZF2 (Normalized to CC-885)” value (CRBN and Helios (IKZF2); [6]) was 0.860.

Cc1ccc(CNC(=O)CCc2cccc(NC3=CC(=O)N(C4CCC(=O)NC4=O)C3=O)c2)cc1Cl (stereo not drawn) [Compound 121, N-(3-chloro-4-methylbenzyl)-3-(3-((1-(2,6-dioxopiperidin-3-yl)-2,5-dioxo-2,5-dihydro-1H-pyrrol-3-yl)amino)phenyl)propanamide] was tested, and the “IKZF2 GFP/RFP Relative Abundance” value (IKZF2; [1]) was 0.071, the “IKZF2 GFP/RFP Relative Abundance” value (IKZF2; [2]) was 0.087 and the “IKZF2 GFP/RFP Relative Abundance” value (IKZF2; [3]) was 0.051. The “IKZF1 GFP/RFP Relative Abundance” value (IKZF1; [1]) was 0.125, the “IKZF1 GFP/RFP Relative Abundance” value (IKZF1; [2]) was 0.093 and the “IKZF1 GFP/RFP Relative Abundance” value (IKZF1; [3]) was 0.120. The “TR-FRET-IKZF2 (Normalized to CC-885)” value (CRBN and Helios (IKZF2); [4]) was 1.521, the “TR-FRET-IKZF2 (Normalized to CC-885)” value (CRBN and Helios (IKZF2); [5]) was 1.376 and the “TR-FRET-IKZF2 (Normalized to CC-885)” value (CRBN and Helios (IKZF2); [6]) was 1.357.
